Bridge positions count the residues as written; N and C are the ends. Square brackets hold non-standard residues; d marks the D form. Peptide text beside a SMILES is read from it. * marks the point of attachment. ξ: configuration not given here. Phe(4-CONH2) = NC(=O)c1ccc(C[C@H](N)C(=O)O)cc1; Phe(4-COOH) = N[C@@H](Cc1ccc(C(=O)O)cc1)C(=O)O; Bip = N[C@@H](Cc1ccc(-c2ccccc2)cc1)C(=O)O; Ala(2-furyl) = N[C@@H](Cc1ccco1)C(=O)O; Phe(3-Me) = Cc1cccc(C[C@H](N)C(=O)O)c1; Val(3-OH) = CC(C)(O)[C@H](N)C(=O)O; 4Pal = N[C@@H](Cc1ccncc1)C(=O)O; Cha = N[C@@H](CC1CCCCC1)C(=O)O; Thr(3ξ) = CC(O)[C@H](N)C(=O)O; Carboxymethyl = O=C(O)C*; Orn = NCCC[C@H](N)C(=O)O; Aun = NCCCCCCCCCCC(=O)O; Dab = NCC[C@H](N)C(=O)O; AEEA = NCCOCCOCC(=O)O
Target: T1, PD-1/PD-L1 interaction (PE-labeled human PD-L1-Ig binding to Jurkat cell line over-expressing human PD-1) (Homo sapiens, UniProt Q15116)
T1 construct: expressed in transfected cells; host or cells: Jurkat
Experiment: Jurkat-PD-1 Cell Binding High-Content Screening Assay (CBA)
Format: cell-based
Conditions: Jurkat cell line over-expressing human PD-1; PE-labeled PD-L1-Ig 20 nM final; read-out: Jurkat hPD1-PDL1 IC50
Summary of the method: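 Jurkat-hPD-1 cells, DMEM/10% FCS; cpd 2 h 37° C; PE-PD-L1-Ig 20 nM final, 1 h; 4% PFA fix + Hoechst 33342, 3× dPBS wash; high-content imaging read-out.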

T1 sequence (Q15116 25-288): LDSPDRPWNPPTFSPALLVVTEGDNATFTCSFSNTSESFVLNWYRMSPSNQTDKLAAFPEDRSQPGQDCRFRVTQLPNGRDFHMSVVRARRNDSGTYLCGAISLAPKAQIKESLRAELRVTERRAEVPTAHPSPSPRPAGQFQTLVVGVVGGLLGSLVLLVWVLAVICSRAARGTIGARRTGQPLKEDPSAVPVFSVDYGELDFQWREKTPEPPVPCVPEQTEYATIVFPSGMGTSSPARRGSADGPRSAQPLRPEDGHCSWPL

Structure (SMILES) | IC50
Cc1cccc(C[C@@H]2NC(=O)[C@H](CC(=O)O)NC(=O)[C@H](Cc3ccc(OCC(=O)O)cc3)NC(=O)[C@H](Cc3ccccc3)NC(=O)CSC[C@@H](C(=O)N[C@@H](CCN)C(=O)NCCCCCCCCCCC(=O)O)NC(=O)[C@H](Cc3cnc[nH]3)NC(=O)[C@H](C(C)O)NC(=O)[C@H](CC3CCCCC3)NC(=O)[C@H](CCN)NC(=O)[C@@H](CC(C)C)NC(=O)[C@H](CCCN)NC(=O)[C@H](Cc3ccc(OCC(=O)O)cc3)NC(=O)[C@H](Cc3ccc(-c4ccccc4)cc3)NC(=O)[C@H](Cc3ccc(C(=O)O)cc3)NC2=O)c1 (stereo partly drawn) [Compound 3709] ({CH2CO}-FY(Carboxymethyl)D[Phe(3-Me)][Phe(4-COOH)][Bip]Y(Carboxymethyl)[Orn][dL][Dab][Cha][Thr(3ξ)]HC[Dab][Aun]-OH; thioether N-14) | 54.5 nM
CC(=O)NCC[C@@H]1NC(=O)[C@H](C(C)C)NC(=O)[C@H](CC2CCCCC2)NC(=O)[C@H](CCN)NC(=O)[C@@H](CC(C)C)NC(=O)[C@H](CCC(=O)O)NC(=O)[C@H](C(C)C)NC(=O)[C@H](Cc2ccc(-c3ccccc3)cc2)NC(=O)[C@H](CC(C)C)NC(=O)[C@H](Cc2c[nH]c3ccccc23)NC(=O)[C@H](CC(=O)O)NC(=O)[C@H](Cc2ccc(OCC(=O)O)cc2)NC(=O)[C@H](C(C)O)NC(=O)CSC[C@@H](C(=O)NCCOCCOCC(=O)NCCCCCCCCCCC(=O)O)NC1=O (stereo partly drawn) [Compound 3710] ({CH2CO}-[Thr(3ξ)]Y(Carboxymethyl)DWL[Bip]VE[dL][Dab][Cha]V[Dab](Ac)C[AEEA][Aun]-OH; thioether N-14) | 82.2 nM
CC(=O)NCC[C@@H]1NC(=O)[C@H](C(C)C)NC(=O)[C@H](CC2CCCCC2)NC(=O)[C@H](CCN)NC(=O)[C@@H](CC(C)C)NC(=O)[C@H](CCC(=O)O)NC(=O)[C@H](C(C)C)NC(=O)[C@H](Cc2ccc(-c3ccccc3)cc2)NC(=O)[C@H](CC(C)C)NC(=O)[C@H](Cc2c[nH]c3ccccc23)NC(=O)[C@H](CC(=O)O)NC(=O)[C@H](Cc2ccc(OCC(=O)O)cc2)NC(=O)[C@H](Cc2ccc(OCC(=O)O)cc2)NC(=O)CSC[C@@H](C(=O)NCCOCCOCC(=O)NCCCCCCCCCCC(=O)O)NC1=O [Compound 3711] ({CH2CO}-Y(Carboxymethyl)Y(Carboxymethyl)DWL[Bip]VE[dL][Dab][Cha]V[Dab](Ac)C[AEEA][Aun]-OH; thioether N-14) | 91.5 nM
Cc1cccc(C[C@@H]2NC(=O)[C@H](CC(=O)O)NC(=O)[C@H](Cc3ccc(OCC(=O)O)cc3)NC(=O)[C@H](Cc3ccncc3)NC(=O)CSC[C@@H](C(=O)N[C@@H](CCN)C(=O)NCCCCCCCCCCC(=O)O)NC(=O)[C@H](CO)NC(=O)[C@H](C(C)(C)O)NC(=O)[C@H](CC3CCCCC3)NC(=O)[C@H](CCN)NC(=O)[C@@H](CC(C)C)NC(=O)[C@H](CCCN)NC(=O)[C@H](Cc3ccc(C(=O)O)cc3)NC(=O)[C@H](Cc3ccc(-c4ccccc4)cc3)NC(=O)[C@H](Cc3ccc(C(=O)O)cc3)NC2=O)c1 [Compound 3712] ({CH2CO}-[4Pal]Y(Carboxymethyl)D[Phe(3-Me)][Phe(4-COOH)][Bip][Phe(4-COOH)][Orn][dL][Dab][Cha][Val(3-OH)]SC[Dab][Aun]-OH; thioether N-14) | 129 nM
Cc1cccc(C[C@@H]2NC(=O)[C@H](CC(=O)O)NC(=O)[C@H](Cc3ccc(OCC(=O)O)cc3)NC(=O)[C@H](CCN)NC(=O)CSC[C@@H](C(=O)N[C@@H](CCN)C(=O)NCCCCCCCCCCC(=O)O)NC(=O)[C@H](CO)NC(=O)[C@H](C(C)(C)O)NC(=O)[C@H](CC3CCCCC3)NC(=O)[C@H](Cc3c[nH]cn3)NC(=O)[C@@H](CC(C)C)NC(=O)[C@H](CCCN)NC(=O)[C@H](Cc3ccc(OCC(=O)O)cc3)NC(=O)[C@H](Cc3ccc(-c4ccccc4)cc3)NC(=O)[C@H](Cc3ccc(C(=O)O)cc3)NC2=O)c1 [Compound 3714] ({CH2CO}-[Dab]Y(Carboxymethyl)D[Phe(3-Me)][Phe(4-COOH)][Bip]Y(Carboxymethyl)[Orn][dL]H[Cha][Val(3-OH)]SC[Dab][Aun]-OH; thioether N-14) | 12.4 nM
Cc1cccc(C[C@@H]2NC(=O)[C@H](CC(=O)O)NC(=O)[C@H](Cc3ccc(OCC(=O)O)cc3)NC(=O)[C@H](Cc3ccncc3)NC(=O)CSC[C@@H](C(=O)N[C@@H](CCN)C(=O)NCCCCCCCCCCC(=O)O)NC(=O)[C@H](CO)NC(=O)[C@H](C(C)(C)O)NC(=O)[C@H](CC3CCCCC3)NC(=O)[C@H](CCN)NC(=O)[C@@H](CC(C)C)NC(=O)[C@H](CCCN)NC(=O)[C@H](Cc3ccc(C(=O)O)cc3)NC(=O)[C@H](Cc3ccc(-c4ccccc4)cc3)NC(=O)[C@H](Cc3ccc(C(=O)O)cc3)NC2=O)c1 [Compound 3716] ({CH2CO}-[4Pal]Y(Carboxymethyl)D[Phe(3-Me)][Phe(4-COOH)][Bip][Phe(4-COOH)][Orn][dL][Dab][Cha][Val(3-OH)]SC[Dab][Aun]-OH; thioether N-14) | 165 nM
Cc1cccc(C[C@@H]2NC(=O)[C@H](CC(=O)O)NC(=O)[C@H](Cc3ccc(OCC(=O)O)cc3)NC(=O)[C@H](Cc3ccncc3)NC(=O)CSC[C@@H](C(=O)N[C@@H](CCN)C(=O)NCCCCCCCCCCC(=O)O)NC(=O)[C@H](CO)NC(=O)[C@H](C(C)(C)O)NC(=O)[C@H](CC3CCCCC3)NC(=O)[C@H](CCN)NC(=O)[C@@H](CC(C)C)NC(=O)[C@H](CCCN)NC(=O)[C@H](Cc3ccc(O)cc3)NC(=O)[C@H](Cc3ccc(-c4ccccc4)cc3)NC(=O)[C@H](Cc3ccc(C(N)=O)cc3)NC2=O)c1 [Compound 3717] ({CH2CO}-[4Pal]Y(Carboxymethyl)D[Phe(3-Me)][Phe(4-CONH2)][Bip]Y[Orn][dL][Dab][Cha][Val(3-OH)]SC[Dab][Aun]-OH; thioether N-14) | 5 nM
Cc1cccc(C[C@@H]2NC(=O)[C@H](CC(=O)O)NC(=O)[C@H](Cc3ccc(OCC(=O)O)cc3)NC(=O)[C@H](C(C)O)NC(=O)CSC[C@@H](C(=O)N[C@@H](CCN)C(=O)NCCCCCCCCCCC(=O)O)NC(=O)[C@H](CO)NC(=O)[C@H](C(C)(C)O)NC(=O)[C@H](CC3CCCCC3)NC(=O)[C@H](CCN)NC(=O)[C@@H](CC(C)C)NC(=O)[C@H](CCCN)NC(=O)[C@H](Cc3ccc(O)cc3)NC(=O)[C@H](Cc3ccc(-c4ccccc4)cc3)NC(=O)[C@H](Cc3ccc(C(N)=O)cc3)NC2=O)c1 (stereo partly drawn) [Compound 3718] ({CH2CO}-[Thr(3ξ)]Y(Carboxymethyl)D[Phe(3-Me)][Phe(4-CONH2)][Bip]Y[Orn][dL][Dab][Cha][Val(3-OH)]SC[Dab][Aun]-OH; thioether N-14) | 8.8 nM
Cc1cccc(C[C@@H]2NC(=O)[C@H](CC(=O)O)NC(=O)[C@H](Cc3ccc(OCC(=O)O)cc3)NC(=O)[C@H](Cc3ccco3)NC(=O)CSC[C@@H](C(=O)N[C@@H](CCN)C(=O)NCCCCCCCCCCC(=O)O)NC(=O)[C@H](CO)NC(=O)[C@H](C(C)(C)O)NC(=O)[C@H](CC3CCCCC3)NC(=O)[C@H](CCN)NC(=O)[C@@H](CC(C)C)NC(=O)[C@H](CCCN)NC(=O)[C@H](Cc3ccc(O)cc3)NC(=O)[C@H](Cc3ccc(-c4ccccc4)cc3)NC(=O)[C@H](Cc3ccc(C(N)=O)cc3)NC2=O)c1 [Compound 3719] ({CH2CO}-[Ala(2-furyl)]Y(Carboxymethyl)D[Phe(3-Me)][Phe(4-CONH2)][Bip]Y[Orn][dL][Dab][Cha][Val(3-OH)]SC[Dab][Aun]-OH; thioether N-14) | 29.8 nM
Cc1cccc(C[C@@H]2NC(=O)[C@H](CC(=O)O)NC(=O)[C@H](Cc3ccc(OCC(=O)O)cc3)NC(=O)[C@H](C(C)O)NC(=O)CSC[C@@H](C(=O)N[C@@H](CCN)C(=O)NCCCCCCCCCCC(=O)O)NC(=O)[C@H](CO)NC(=O)[C@H](C(C)(C)O)NC(=O)[C@H](CC3CCCCC3)NC(=O)[C@H](Cc3cnc[nH]3)NC(=O)[C@@H](CC(C)C)NC(=O)[C@H](CCCN)NC(=O)[C@H](Cc3ccc(OCC(=O)O)cc3)NC(=O)[C@H](Cc3ccc(-c4ccccc4)cc3)NC(=O)[C@H](Cc3ccc(OCC(=O)O)cc3)NC2=O)c1 (stereo partly drawn) [Compound 3720] ({CH2CO}-[Thr(3ξ)]Y(Carboxymethyl)D[Phe(3-Me)]Y(Carboxymethyl)[Bip]Y(Carboxymethyl)[Orn][dL]H[Cha][Val(3-OH)]SC[Dab][Aun]-OH; thioether N-14) | 11.7 nM
Cc1cccc(C[C@@H]2NC(=O)[C@H](CC(=O)O)NC(=O)[C@H](Cc3ccc(OCC(=O)O)cc3)NC(=O)[C@H](Cc3ccncc3)NC(=O)CSC[C@@H](C(=O)N[C@@H](CCN)C(=O)NCCCCCCCCCCC(=O)O)NC(=O)[C@H](CO)NC(=O)[C@H](C(C)(C)O)NC(=O)[C@H](CC3CCCCC3)NC(=O)[C@H](Cc3cnc[nH]3)NC(=O)[C@@H](CC(C)C)NC(=O)[C@H](CCCN)NC(=O)[C@H](Cc3ccc(OCC(=O)O)cc3)NC(=O)[C@H](Cc3ccc(-c4ccccc4)cc3)NC(=O)[C@H](Cc3ccc(OCC(=O)O)cc3)NC2=O)c1 [Compound 3721] ({CH2CO}-[4Pal]Y(Carboxymethyl)D[Phe(3-Me)]Y(Carboxymethyl)[Bip]Y(Carboxymethyl)[Orn][dL]H[Cha][Val(3-OH)]SC[Dab][Aun]-OH; thioether N-14) | 18.4 nM
Cc1cccc(C[C@@H]2NC(=O)[C@H](CC(=O)O)NC(=O)[C@H](Cc3ccc(OCC(=O)O)cc3)NC(=O)[C@H](Cc3ccncc3)NC(=O)CSC[C@@H](C(=O)N[C@@H](CO)C(=O)NCCCCCCCCCCC(=O)O)NC(=O)[C@H](CO)NC(=O)[C@H](C(C)(C)O)NC(=O)[C@H](CC3CCCCC3)NC(=O)[C@H](Cc3cnc[nH]3)NC(=O)[C@@H](CC(C)C)NC(=O)[C@H](CCCN)NC(=O)[C@H](Cc3ccc(OCC(=O)O)cc3)NC(=O)[C@H](Cc3ccc(-c4ccccc4)cc3)NC(=O)[C@H](Cc3ccc(OCC(=O)O)cc3)NC2=O)c1 [Compound 3722] ({CH2CO}-[4Pal]Y(Carboxymethyl)D[Phe(3-Me)]Y(Carboxymethyl)[Bip]Y(Carboxymethyl)[Orn][dL]H[Cha][Val(3-OH)]SCS[Aun]-OH; thioether N-14) | 41.2 nM

Reference: patent publication US20260022142A1, “MACROCYCLIC IMMUNOMODULATORS” (Bristol-Myers Squibb Company, priority 2022, published 2026)
